The subject of experiment [1] is T. b. brucei Lister 427 cells. As to the kind of experiment: T. brucei cell viability analysis. It is filed as cell-based. To be noted: Trypanosoma brucei, 48 h, read-out: IC50 against T. brucei cells, bloodstream form T. b. brucei Lister 427, 48 hrs, MTS.
The target of experiment [2] is tubulin polymerization in T. brucei cells (Trypanosoma brucei rhodesiense, UniProt P04106+P04107). It is filed as cell-based. To be noted: different doses, 7 hrs, western blot with TAT-1 antibody.
Sequence of tubulin polymerization in T. brucei cells (P04106 whole entry): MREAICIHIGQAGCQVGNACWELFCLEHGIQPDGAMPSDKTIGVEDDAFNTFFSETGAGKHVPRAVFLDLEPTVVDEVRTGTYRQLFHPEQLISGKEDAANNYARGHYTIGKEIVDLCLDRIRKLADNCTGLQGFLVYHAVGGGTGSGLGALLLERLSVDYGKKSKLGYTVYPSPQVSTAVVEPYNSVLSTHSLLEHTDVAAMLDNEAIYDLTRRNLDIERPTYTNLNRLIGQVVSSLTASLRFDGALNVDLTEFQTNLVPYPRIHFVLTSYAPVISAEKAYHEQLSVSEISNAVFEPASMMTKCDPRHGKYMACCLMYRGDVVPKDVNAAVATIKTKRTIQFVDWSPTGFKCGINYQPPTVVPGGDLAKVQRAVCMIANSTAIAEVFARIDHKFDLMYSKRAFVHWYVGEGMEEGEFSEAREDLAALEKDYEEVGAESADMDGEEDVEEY
Sequence of tubulin polymerization in T. brucei cells (P04107 whole entry): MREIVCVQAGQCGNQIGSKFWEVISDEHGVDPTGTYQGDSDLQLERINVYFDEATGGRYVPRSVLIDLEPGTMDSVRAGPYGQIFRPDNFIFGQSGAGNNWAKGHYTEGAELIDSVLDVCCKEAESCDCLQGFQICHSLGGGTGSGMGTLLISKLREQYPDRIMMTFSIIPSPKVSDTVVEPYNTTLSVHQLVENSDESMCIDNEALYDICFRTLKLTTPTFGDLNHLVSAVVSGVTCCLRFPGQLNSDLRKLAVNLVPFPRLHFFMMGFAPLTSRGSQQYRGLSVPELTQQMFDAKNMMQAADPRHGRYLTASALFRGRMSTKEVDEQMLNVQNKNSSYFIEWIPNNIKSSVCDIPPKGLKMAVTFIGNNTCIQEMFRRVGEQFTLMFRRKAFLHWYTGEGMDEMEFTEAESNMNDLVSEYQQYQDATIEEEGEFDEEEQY

pIC50: −log10 of the molar value. “Also recorded” adds a separate entry of the source.

For `CN(c1ccc(NC(=O)c2cc(C(F)(F)F)cc(C(F)(F)F)c2)cc1OCc1ccc(C(F)(F)F)cc1)S(=O)(=O)Cc1ccccc1` [Compound 11, N-(4-(N-methyl-1-phenylmethylsulfonamido)-3-((4-(trifluoromethyl)benzyl)oxy)phenyl)-3,5-bis(trifluor omethyl)benzamide], in experiment [1], the pIC50 (usually −log10 of the IC50, conventionally taken in molar units) was over 5.30.
For the compound `CN(c1ccc(NC(=O)c2ccc(C#N)cc2)cc1OCc1ccc(C(F)(F)F)cc1)S(=O)(=O)Cc1ccccc1` [Compound 15, 4-cyano-N-(4-(N-methyl-1-phenylmethylsulfonamido)-3-((4-(trifluoromethyl)benzyl)oxy)phenyl)benzamide], in experiment [2], the “amount of polymerized tubulin in T. brucei cells” value is listed as “decreased the amount of polymerized tubulin in a dose-dependent manner; also recorded: level of polymerized tubulin is significantly decreased”.

Source of the values: PMC5509440 (Bioorganic & medicinal chemistry, 2017).
